Patent publication US20260138976A1 (Hoffmann-La Roche Inc., priority 2022, published 2026)
pEC50, pIC50: −log10 of the molar value.

How the values were obtained:
[1] = target: T1, DGKζ (hDGKzeta(1-928)-N-His) (Homo sapiens, UniProt Q13574); test: In vitro DGK inhibition assay, DGKzeta ADP Glo (in house); assay type: biochemical; details: 2 nM DGKζ, 50 μM ATP, 125 uM DLG in liposomes, 1 hour reaction
T1 construct: hDGKzeta(1-928)-N-His; His (N); made in house; host or cells: Sf21 insect cells (baculovirus)
Method in brief: (§1)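 Full-length His-tagged human DGKα (4 nM) or DGKζ (2 nM), expressed in Sf21 cells, phosphorylated 125 µM DLG in PS/PC liposomes with ATP at 25 µM (α) or 50 µM (ζ) for 1 h. ADP was measured by ADP-Glo luminescence. Compounds were tested as 11-point 1:3 series in 2% DMSO.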

[2] = target: T2, DGKα (hDGKalpha(1-735)-N-His) (Homo sapiens, UniProt P23743); test: In vitro DGK inhibition assay, DGKalpha ADP Glo (in house); assay type: biochemical; details: 4 nM DGKα, 25 μM ATP, 125 uM DLG in liposomes, 1 hour reaction
T2 construct: hDGKalpha(1-735)-N-His; His (N); made in house; host or cells: Sf21 insect cells (baculovirus)
Method in brief: as §1

[3] = tested on: primary human T-cells; test: IL2 secretion measurements (24 h, CD3-stimulated T-cells, PBS counter screen); assay type: cell-based; details: for Emax IL2 (% activation): CD3 condition, normalised to DMSO (neutral) and 20 μM reference compound A1 = 100%; for pEC50: Homo sapiens, T-cell, CD3-stimulated primary human T-cells, IL2 secretion, fitted sigmoidal curve, read-out: Tcell IL2 CD3 EC50
Method in brief: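 Expanded primary human T-cells (100k/well) were plated on anti-CD3-coated or PBS-only plates with compound in a 5–6 point dose response (top 20 or 10 μM final, 3.333-fold, 0.2% DMSO). IL-2 in 24 h supernatants was quantified by ProQuantum immunoassay or ELISA. Values were normalized to DMSO and 20 μM reference compound A1 (100%), giving EC50 and Emax.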

T2 sequence (P23743 whole entry): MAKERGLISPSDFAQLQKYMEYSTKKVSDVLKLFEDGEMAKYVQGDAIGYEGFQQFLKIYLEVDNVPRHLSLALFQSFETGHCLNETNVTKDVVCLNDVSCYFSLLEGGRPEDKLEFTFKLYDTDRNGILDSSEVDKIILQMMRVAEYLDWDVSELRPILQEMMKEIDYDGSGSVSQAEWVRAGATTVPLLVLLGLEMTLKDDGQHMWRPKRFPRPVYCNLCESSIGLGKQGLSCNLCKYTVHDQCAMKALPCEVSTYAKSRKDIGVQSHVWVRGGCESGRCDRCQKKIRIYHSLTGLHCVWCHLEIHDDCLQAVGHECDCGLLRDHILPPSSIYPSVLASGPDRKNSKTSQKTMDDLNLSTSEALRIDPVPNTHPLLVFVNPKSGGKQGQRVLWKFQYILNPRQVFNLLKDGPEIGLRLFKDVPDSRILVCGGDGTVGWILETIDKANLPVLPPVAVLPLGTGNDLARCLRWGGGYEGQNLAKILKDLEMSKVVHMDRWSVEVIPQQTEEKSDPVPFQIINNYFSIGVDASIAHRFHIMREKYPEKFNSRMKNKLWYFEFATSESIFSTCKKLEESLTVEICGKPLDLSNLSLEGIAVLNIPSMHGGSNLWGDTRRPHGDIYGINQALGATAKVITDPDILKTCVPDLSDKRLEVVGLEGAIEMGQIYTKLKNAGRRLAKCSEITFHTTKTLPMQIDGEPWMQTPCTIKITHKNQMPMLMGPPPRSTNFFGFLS
T1 sequence (Q13574 whole entry): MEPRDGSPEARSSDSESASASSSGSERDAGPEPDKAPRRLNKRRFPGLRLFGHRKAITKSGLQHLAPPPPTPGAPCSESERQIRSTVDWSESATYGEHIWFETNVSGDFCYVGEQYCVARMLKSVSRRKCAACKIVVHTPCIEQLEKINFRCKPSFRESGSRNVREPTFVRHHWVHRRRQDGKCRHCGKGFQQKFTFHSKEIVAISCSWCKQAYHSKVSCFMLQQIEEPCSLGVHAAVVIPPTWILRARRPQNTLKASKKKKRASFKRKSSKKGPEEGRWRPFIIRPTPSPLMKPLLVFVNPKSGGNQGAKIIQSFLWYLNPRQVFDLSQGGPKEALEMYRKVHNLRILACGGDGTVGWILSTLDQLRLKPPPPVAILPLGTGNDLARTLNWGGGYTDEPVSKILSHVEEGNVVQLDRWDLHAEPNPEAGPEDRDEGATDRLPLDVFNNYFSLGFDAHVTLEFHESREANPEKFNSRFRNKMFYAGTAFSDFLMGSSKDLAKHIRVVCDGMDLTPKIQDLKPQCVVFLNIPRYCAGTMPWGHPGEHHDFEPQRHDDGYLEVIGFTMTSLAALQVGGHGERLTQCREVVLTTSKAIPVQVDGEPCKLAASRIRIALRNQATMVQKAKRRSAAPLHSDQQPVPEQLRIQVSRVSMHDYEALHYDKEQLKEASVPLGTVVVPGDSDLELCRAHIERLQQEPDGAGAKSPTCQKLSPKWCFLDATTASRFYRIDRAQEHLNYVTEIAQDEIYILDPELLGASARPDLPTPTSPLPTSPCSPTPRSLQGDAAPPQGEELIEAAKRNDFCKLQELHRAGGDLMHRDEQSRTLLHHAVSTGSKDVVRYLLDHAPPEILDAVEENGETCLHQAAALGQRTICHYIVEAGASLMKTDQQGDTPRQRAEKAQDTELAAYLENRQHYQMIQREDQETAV

| SMILES | pIC50 [1] | pIC50 [2] | Emax IL2 (% activation) [3] [% activation] | pEC50 [3] |
| --- | --- | --- | --- | --- |
| COc1ccc(-c2ccc(CN3C(=O)[C@@H](N)CS(=O)(=O)c4ccc(-c5nnc(C6(CO)CCCO6)o5)cc43)cc2)cc1 (stereo partly drawn) [Example 63, (3R)-3-amino-7-[5-[2-(hydroxymethyl)tetrahydrofuran-2-yl]-1,3,4-oxadiazol-2-yl]-5-[[4-(4-methoxyphenyl)phenyl]methyl]-1,1-dioxo-2,3-dihydro-1λ^6,5-benzothiazepin-4-one] | 5.77 | 4.47 | 78 | 5.62 |
| COC(F)(c1nnc(-c2ccc3c(c2)N(Cc2ccc(-c4nnc(C5CC5)o4)cc2)C(=O)[C@@H](N)CS3(=O)=O)o1)C(F)(F)F (stereo partly drawn) [Example 65] | 5.19 | 5.60 | 92 | 5.85 |
| N[C@H]1CS(=O)(=O)c2ccc(-c3nnc(N4CCC(F)(F)CC4)o3)cc2N(Cc2ccc(-c3nnc(C(F)(F)F)o3)cc2)C1=O [Example 71, (3R)-3-amino-7-[5-(4,4-difluoro-1-piperidyl)-1,3,4-oxadiazol-2-yl]-1,1-dioxo-5-[[4-[5-(trifluoromethyl)-1,3,4-oxadiazol-2-yl]phenyl]methyl]-2,3-dihydro-1λ^6,5-benzothiazepin-4-one] | 6.05 | 4.61 | 111 | 5.49 |
| CC1(Nc2nnc(-c3ccc4c(c3)N(Cc3ccc(-c5noc(C(F)(F)F)n5)cc3)C(=O)[C@@H](N)CS4(=O)=O)o2)CC(F)(F)C1 [Example 72, (3R)-3-amino-7-[5-[(3,3-difluoro-1-methyl-cyclobutyl)amino]-1,3,4-oxadiazol-2-yl]-1,1-dioxo-5-[[4-[5-(trifluoromethyl)-1,2,4-oxadiazol-3-yl]phenyl]methyl]-2,3-dihydro-1λ^6,5-benzothiazepin-4-one] | 4.68 | < 4.20 | 238 | 5.48 |
| N[C@H]1CS(=O)(=O)c2ccc(-c3nnc(N4CCOC(C(F)(F)F)C4)o3)cc2N(Cc2ccc(-c3ccc(C(F)(F)F)cc3)cc2)C1=O (stereo partly drawn) [Example 73, (3R)-3-amino-1,1-dioxo-7-[5-[2-(trifluoromethyl)morpholin-4-yl]-1,3,4-oxadiazol-2-yl]-5-[[4-[4-(trifluoromethyl)phenyl]phenyl]methyl]-2,3-dihydro-1λ^6,5-benzothiazepin-4-one] | 4.87 | < 4.20 | 116 | 5.60 |
| N[C@H]1CS(=O)(=O)c2ccc(-c3nnc(N4CCOC(C(F)(F)F)C4)o3)cc2N(Cc2ccc(-c3noc(C(F)(F)F)n3)cc2)C1=O (stereo partly drawn) [Example 74, (3R)-3-amino-1,1-dioxo-7-[5-[2-(trifluoromethyl)morpholin-4-yl]-1,3,4-oxadiazol-2-yl]-5-[[4-[5-(trifluoromethyl)-1,2,4-oxadiazol-3-yl]phenyl]methyl]-2,3-dihydro-1λ^6,5-benzothiazepin-4-one] | 6.11 | 5.44 | 206 | 5.84 |
| N[C@H]1CS(=O)(=O)c2ccc(-c3nnc(N4CCOC(C(F)(F)F)C4)o3)cc2N(Cc2ccc(-c3ccc(C(F)(F)F)cn3)cc2)C1=O (stereo partly drawn) [Example 75, (3R)-3-amino-1,1-dioxo-7-[5-[2-(trifluoromethyl)morpholin-4-yl]-1,3,4-oxadiazol-2-yl]-5-[[4-[5-(trifluoromethyl)-2-pyridyl]phenyl]methyl]-2,3-dihydro-1λ^6,5-benzothiazepin-4-one] | 5.57 | 4.34 | 140 | 5.59 |
| COc1ccc(-c2ccc(CN3C(=O)[C@@H](N)CS(=O)(=O)c4ccc(-c5nnc(N6CCC(F)(F)C6)o5)cc43)cc2)cc1 [Example 76, (3R)-3-amino-7-[5-(3,3-difluoropyrrolidin-1-yl)-1,3,4-oxadiazol-2-yl]-5-[[4-(4-methoxyphenyl)phenyl]methyl]-1,1-dioxo-2,3-dihydro-1λ^6,5-benzothiazepin-4-one] | 5.96 | 4.58 | 297 | 5.58 |
| N[C@H]1CS(=O)(=O)c2ccc(-c3nnc(N4CCOC5(CC5)C4)o3)cc2N(Cc2ccc(-c3noc(C(F)(F)F)n3)cc2)C1=O [Example 77] | 5.81 | 4.32 | 170 | 5.46 |
| N[C@H]1CS(=O)(=O)c2ccc(-c3nnc(N4CCOC(F)(F)C4)o3)cc2N(Cc2ccc(-c3noc(C(F)(F)F)n3)cc2)C1=O [Example 78, (3R)-3-amino-7-[5-(2,2-difluoromorpholin-4-yl)-1,3,4-oxadiazol-2-yl]-1,1-dioxo-5-[[4-[5-(trifluoromethyl)-1,2,4-oxadiazol-3-yl]phenyl]methyl]-2,3-dihydro-1λ^6,5-benzothiazepin-4-one] | 5.60 | 4.36 | 216 | 5.63 |
| COc1ccc(-c2ccc(CN3C(=O)[C@@H](N)CS(=O)(=O)c4ccc(-c5nnc(N6CCOC(F)(F)C6)o5)cc43)cc2)cc1 [Example 79, (3R)-3-amino-7-[5-(2,2-difluoromorpholin-4-yl)-1,3,4-oxadiazol-2-yl]-5-[[4-(4-methoxyphenyl)phenyl]methyl]-1,1-dioxo-2,3-dihydro-1λ^6,5-benzothiazepin-4-one] | 6.06 | 4.40 | 236 | 5.61 |
| COc1ccc(-c2ccc(CN3C(=O)[C@@H](N)CS(=O)(=O)c4ccc(-c5nnc(N(C)CC(F)(F)F)o5)cc43)cc2)cc1 [Example 81, (3R)-3-amino-5-[[4-(4-methoxyphenyl)phenyl]methyl]-7-[5-[methyl(2,2,2-trifluoroethyl)amino]-1,3,4-oxadiazol-2-yl]-1,1-dioxo-2,3-dihydro-1λ^6,5-benzothiazepin-4-one] | 5.61 | 4.41 | 66 | 6.28 |
| N[C@H]1CS(=O)(=O)c2ccc(-c3noc(C4(N)COC4)n3)cc2N(Cc2ccc(-c3noc(C(F)(F)F)n3)cc2)C1=O [Example 84, (3R)-3-amino-7-[5-(3-aminooxetan-3-yl)-1,2,4-oxadiazol-3-yl]-1,1-dioxo-5-[[4-[5-(trifluoromethyl)-1,2,4-oxadiazol-3-yl]phenyl]methyl]-2,3-dihydro-1lambda6,5-benzothiazepin-4-one] | 5.51 | < 4.20 | 33 | < 5.00 |
| N[C@H]1CS(=O)(=O)c2ccc(-c3noc(-c4cccnc4Cl)n3)cc2N(Cc2ccc(-c3noc(C4CC4)n3)cc2)C1=O [Example 85, (3R)-3-amino-7-[5-(2-chloro-3-pyridyl)-1,2,4-oxadiazol-3-yl]-5-[[4-(5-cyclopropyl-1,2,4-oxadiazol-3-yl)phenyl]methyl]-1,1-dioxo-2,3-dihydro-1λ^6,5-benzothiazepin-4-one] | 5.68 | < 4.20 | 4 | < 5.00 |
| Cc1nc(F)ccc1-c1nc(-c2ccc3c(c2)N(Cc2ccc(-c4noc(C5CC5)n4)cc2)C(=O)[C@@H](N)CS3(=O)=O)no1 [Example 86, (3R)-3-amino-5-[[4-(5-cyclopropyl-1,2,4-oxadiazol-3-yl)phenyl]methyl]-7-[5-(6-fluoro-2-methyl-3-pyridyl)-1,2,4-oxadiazol-3-yl]-1,1-dioxo-2,3-dihydro-1λ^6,5-benzothiazepin-4-one] | 6.19 | < 4.20 | 101 | 5.38 |
| N[C@H]1CS(=O)(=O)c2ccc(-c3noc(-c4cccnc4C(F)(F)F)n3)cc2N(Cc2ccc(-c3noc(C4CC4)n3)cc2)C1=O [Example 87, (3R)-3-amino-5-[[4-(5-cyclopropyl-1,2,4-oxadiazol-3-yl)phenyl]methyl]-1,1-dioxo-7-[5-[2-(trifluoromethyl)-3-pyridyl]-1,2,4-oxadiazol-3-yl]-2,3-dihydro-1λ^6,5-benzothiazepin-4-one] | 5.64 | < 4.20 | 16 | < 5.00 |
| CC(C)(C)c1nnc(-c2ccc3c(c2)N(Cc2ccc(-c4nc(C(F)(F)F)co4)cc2)C(=O)[C@@H](N)CS3(=O)=O)o1 [Example 89, (3R)-3-amino-7-(5-tert-butyl-1,3,4-oxadiazol-2-yl)-1,1-dioxo-5-[[4-[4-(trifluoromethyl)oxazol-2-yl]phenyl]methyl]-2,3-dihydro-1λ^6,5-benzothiazepin-4-one] | 6.21 | 5.08 | 182 | 6.42 |
| CC(C)(C)c1nnc(-c2ccc3c(c2)N(Cc2ccc(-n4cnc(C(F)(F)F)n4)cc2)C(=O)[C@@H](N)CS3(=O)=O)o1 [Example 91, (3R)-3-amino-7-(5-tert-butyl-1,3,4-oxadiazol-2-yl)-1,1-dioxo-5-[[4-[3-(trifluoromethyl)-1,2,4-triazol-1-yl]phenyl]methyl]-2,3-dihydro-126,5-benzothiazepin-4-one] | 5.52 | 5.37 | 113 | 5.44 |
